Source: patent US12622914B2, “Pharmaceutical rectal suppository compositions of 6-thioguanine, methods of treatment and/or methods of manufacturing” (Douglas Pharmaceuticals Ltd., priority 2023, dated 2026)

Legend:
[1] = Particle size distribution (Malvern Mastersizer 3000); type: physicochemical; conditions: dispersed in n-heptane containing 0.1% span 80 pre-saturated with 6-thioguanine
Method: The particles size distribution of the API alone and in the rectal suppository formulations was measured using a Malvern Mastersizer 3000 (Hydro SM). The samples were dispersed in n-heptane containing 0.1% span 80 pre-saturated with 6-thioguanine (to reduce any dissolution of the 6-thioguanine particles in the samples).

induced colitis = conditions: mice lacking the enzyme HPRT, treatment with 6-thioguanine; cited from earlier work

Structure (SMILES) | D10 [1] [μm] | D50 [1] [μm] | D90 [1] [μm] | D10 ([1]; listed as Batch C) [μm] | D50 ([1]; listed as Batch C) [μm] | D90 ([1]; listed as Batch C) [μm] | reduction in induced colitis (induced colitis)
Nc1nc(=S)c2[nH]cnc2[nH]1 [B, 6-thioguanine] | 5.3 | 69.1 | 267.0 | – | – | – | –
Nc1nc(=S)c2[nH]cnc2[nH]1 [Sample A, 6-thioguanine] | 5.4 | 66.8 | 261.0 | – | – | – | –
Nc1nc(=S)c2[nH]cnc2[nH]1 [Sample C, 6-thioguanine] | 2.9 | 9.0 | 151.0 | 2.9 | 9.0 | 151.0 | –
Nc1nc(=S)c2[nH]cnc2[nH]1 [6-thioguanine, 2-amino-1H-purine-6(7H)-thione] | – | – | – | – | – | – | rapid and appreciable reduction in induced colitis
